According to PMC3772838, “Preclinical Development of a Novel Class of CXCR4 Antagonist Impairing Solid Tumors Growth and Metastases” (PLoS ONE, 2013):

How the values were obtained:
[1] = tested on: B16-CXCR4 murine melanoma cells; assay: B16-CXCR4 melanoma lung metastases model; type: in vivo, C57BL/6 mice; conditions: cells pre-treated 30 min with 10 µM, IP once a day for 10 days, peptides 2 mg/kg, AMD3100 1.25 mg/kg
Protocol: (§1) All mice were obtained from Harlan (Bar Harbor, ME, USA) and their care was in accord with institutional guidelines. Twenty-five 6-8-week-old female C57BL/6 mice were inoculated into the tail vein with 5×10^5 B16–CXCR4 cells pre-treated for 30 minutes with peptide S (10 µM), peptide R (10 µM), peptide I (10 µM), or AMD3100 (10 µM). Six hours later intraperitoneal (IP) treatment started with AMD3100 (1.25 mg/kg) or each peptide (2 mg/kg) in sterile PBS once a day for 10 days. A week later the mice were sacrificed. The experiment was repeated three times. The lung metastases assay was also conducted with K7M2 murine osteosarcoma cells. Twenty-five 6-8-week-old female Balb/c mice were injected via tail vein with 2.5×10^5 K7M2 cells pre-treated for 30 minutes with AMD3100 (10 µM), peptide S (10 µM), peptide R (10 µM), peptide I (10 µM) and animals were treated IP daily for 15 days with 2.5 mg/kg for AMD3100 group and 10 mg/kg for each peptide groups. A week later the mice were sacrificed. Xenograft tumor growth was evaluated using pEGFP-SN12C cells in exponential growth phase subcutaneously injected into the right flank of twenty-five 6-8-week-old female CD1 nude mice. 2×10^6 SN12C-pEGFP were injected in the right flank of each mouse and treated with AMD3100 (1.25 mg/kg) and peptides (2 mg/kg) for 10 days ip. A week later mice were euthanized and tumor volume evaluated through Leica MacroFluo fluorescence stereomicroscope (Leica microsystem, Houston, TX). The experiment was repeated three times. The Istituto Nazionale per lo Studio e la Cura dei Tumori, Fondazione Giovanni Pascale Independent Etical Comettee approved the study (CEI/600/12).
(A) B16-CXCR4 tumor cells pre-treated for 30 minutes with AMD3100 (10 µM), peptide R (10 µM), peptide I (10 µM), or peptide S (10 µM) were inoculated into the tail vein of C57/B female mice and the mice were further treated intraperitoneally for 10 days with 1.25 mg/kg AMD3100, or 2 mg/kg peptide R, peptide I or peptide S. Gross examination of representative lungs; (B) Graphical representation of the number of lung metastases in treated mice. Double tailed T-Test was used for statistical analyses. The experiments were repeated three times.

[2] = tested on: SN12C-EGFP renal cancer cells; assay: SN12C-pEGFP subcutaneous xenograft tumor growth; type: in vivo, CD1 nude mice; conditions: IP 10 days, peptides 2 mg/kg, AMD3100 1.25 mg/kg; measured a week later by fluorescence stereomicroscope; control 65.97±35.1; average
Protocol: as §1
6 to 8-week-old female CD1 nude mice were injected subcutaneously with 2×10^6 pEGFP-SN12C cells pre-treated with 10 µM AMD3100 or 10 µM of each peptide. Beginning the following day mice were further treated intraperitoneally for 10 days with 1.25 mg/kg AMD3100 or 2 mg/kg of peptides R, I or S. A week later mice were euthanized and tumor volume evaluated directly from the flank of mice using a Leica MacroFluo fluorescence stereomicroscope (Leica microsystem, Houston, TX) (A). The experiments were repeated three times. B. SN12C-PEGFP cells migration toward CXCL12 in the presence of AMD3100 or Peptide R, S and I.

P-ERK1/2 = assay: CXCL12-induced p-ERK induction (immunoblotting); type: cell-based, human; conditions: PES43 cells serum-starved, CXCL12 100 ng/ml, after 5 minutes
Protocol: Cells were homogenized in lysis buffer (40 mM Hepes pH 7,5, 120 mM NaCl, 5 mM MgCl2, 1 mM EGTA, 0,5 mM EDTA, 1% Triton X-100) containing protease (Complete Tablets- EDTA-free, Roche) and phosphatase inhibitors (20 mM α-glycerol-3-phosphate, 2,5 mM Na-pyrophosphate). The following primary antibodies were used: anti-p-ERK (sc7383, Santa Cruz Biotechnology, Inc., Santa Cruz, CA, USA) and anti-ERK2 (sc 154G, Santa Cruz Biotechnology CA, USA). P-Erk induction was plotted as ratio P-Erk in the presence of CXCL12 (100 ng/ml)/P-Erk in serum free.
(§2) Experiments were conducted using PES43 cells. (A) Migration was assayed in 24-well Transwell chambers using inserts with 8-µm pore membrane. […] Migrated cells on the lower surface were fixed, stained with H&E and counted microscopically. The results are expressed as the migration index relative to migration in presence of BSA alone. […] Images were acquired with OKO Time Lapse. […] PES43 cells were serum-starved and incubated with CXCL12 (100 ng/ml) alone or in presence of AMD3100/peptides. Each peptide was tested in at least three different experiments. Double tailed T-Test was used for statistical analyses. Differences were considered significant at P<0.05 compared to control.
PES43 cell lines were serum starved for 16 hours. […] (TIF) Click here for additional data file.

CXCR7 = assay: Anti-CXCR7 antibody (clone 11G8) binding in CXCR7 overexpressing cells; design: species or system human; conditions: MCF-7 cells; peptides 10 µM, CXCL11 100 nM, 30 min pre-incubation; Figure S3
Protocol: [The procedure below names another target; the source says it served here with some conditions changed.] (§3) CXCR4 binding was evaluated as previously described. Briefly 5×10^5 CCRF–CEM cells were pre-incubated with 10 µM peptides or AMD3100 in binding buffer (PBS 1× plus 0.2% BSA and 0.1% NaN3) for 30 minutes at 37°C, 5% CO2 and then labeled for 30 minutes with anti-CXCR4 PE-antibody (FAB170P, clone 12G5, R&D Systems, Minneapolis, MN, USA). The cells were analyzed by FACS Canto II cytofluorometer (Becton Dickinson Immunocytometry Systems, Mountain View, CA, USA).
(§4) Fluo-3AM and Pluronic acid were added to each sample to increase Fluo-3AM solubility and improve dye loading into the cells. (TIF) Click here for additional data file.

CXCR3 = assay: Anti-CXCR3 antibody (clone 1C6/CXCR3) binding in CXCR3 overexpressing cells; design: species or system human; conditions: COLO205 cells; peptides 10 µM, CXCL11 100 nM, 30 min pre-incubation; Figure S3
Protocol: [The procedure below names another target; the source says it served here with some conditions changed.] as §3, §4

[3] = tested on: PES43 human melanoma cells; assay: CXCL12-mediated wound closure assay; type: cell-based; conditions: 6 hours post-wounding
Protocol: (§5) Migration was assayed in 24-well Transwell chambers (Corning Inc., Corning, NY) using inserts with an 8-µm pore membrane. Membranes were precoated with collagen (human collagen type I/III) and fibronectin (20 µg/mL each). […] After 16 h incubation, cells on the upper surface of the filter were removed using a cotton wool swab; migration of cells in migration media alone was compared with migration in media containing CXCL12. The cells were counted in ten different fields (original magnification ×40). The migration index was defined as the ratio between migrating cells in the experimental group and migrated cells in the control group. For the wound closure assay, tested cells were allowed to reach confluence in six-well plates containing serum-depleted growth medium and scratched with pipette tips to make wounds. The wound closure was observed microscopically 6 hours post-wounding (OKO Time Lapse).
as §2

CXCR4 [4] = assay: CXCL12-induced calcium mobilization assay (Fluo-3 AM); type: cell-based, human; conditions: CCRF-CEM cells, 10 µM peptide, percent of fluorescence with CXCL12 alone; at least three experiments
Protocol: For the calcium efflux studies a 2 mg/mL stock solution of Fluo-3 acetoxymethylester (Invitrogen, Carlsbad, CA) in anhydrous DMSO was used. […] CCRF–CEM cells were resuspended in cell loading buffer (PBS, 1% FCS, 1 mmol/L MgCl2, and 1 mmol/L CaCl2) at 5×10^5 cells/mL. Fluo-3AM and Pluronic acid were added to each sample to increase Fluo-3AM solubility and improve dye loading into the cells. Baseline calcium efflux was established, then chemokines were added as indicated and chemokine-induced calcium efflux was measured.
(§6) (A) The amount of peptides or AMD3100 bound was assessed indirectly by flow cytometry using the PE-labelled anti-CXCR4 antibody (clone 12G5). Results are expressed as the percent antibody bound. (B) The Ca^2+ influx assay was performed using CCRF-CEM cells and Fluo-3 AM calcium indicator. CCRF-CEM cells were incubated 30 minutes at 37°C with Fluo-3 AM and 15 minutes with AMD3100 (10 µM)/peptides (10 µM) and then treated with CXCL12. Results are expressed as the percent of Fluo-3 AM fluorescence in presence of CXCL12 alone. Each peptide was tested in at least three different experiments. Double tailed T-Test was used for statistical analyses. Differences were considered significant at P<0.05 compared to control. Control (CTRL).

[5] = tested on: PES43 human melanoma cells; assay: CXCL12-dependent Transwell migration of PES43 cells; type: cell-based; conditions: 100 ng/mL CXCL12 in lower chamber, 16 h, tested 10 nM, 100 nM, 1 µM, 10 µM
Protocol: as §5, §2

CXCR4 [6] = assay: Competition with 12G5 anti-CXCR4 antibody binding (flow cytometry); design: species or system human; conditions: CCRF-CEM cells, 10 µM peptide, 30 min pre-incubation at 37°C, PE-labelled 12G5, flow cytometry; at least three experiments
Protocol: as §3, §6

Question: How did the “fold reduction of the number of lung metastases vs control” value [1] turn out when c1cc(CN2CCCNCCNCCCNCC2)ccc1CN1CCCNCCNCCCNCC1 [AMD3100, reference compound] was run?
Answer: 5.6 fold

Question: What about the “number of lung metastases” value ([1]; control 8.4±3.49, average) of the same compound?
Answer: 1.5±2.9

Question: What about the “tumor volume of SN12C-GFP xenograft” value [2] of the same compound?
Answer: 35.53±10.42 mm^3

Question: And the “CXCL12-mediated p-ERK induction” value (P-ERK1/2)?
Answer: reduced

Question: How did the “binding to CXCR7 (anti-CXCR7 antibody)” value (CXCR7) turn out when “CXCL11: specific ligand (chemokine) that inhibited antibody binding to CXCR3 or CXCR7” was run?
Answer: inhibited

Question: And the “binding to CXCR3 (anti-CXCR3 antibody)” value (CXCR3)?
Answer: inhibited

Question: Which CXCL12-mediated wound healing [3] does the source give for “Arg-Ala-[Cys-Arg-Tyr-Trp-Cys] [Peptide T]” here?
Answer: delayed

Question: What about the “CXCL12-induced calcium efflux (Fluo-3 AM fluorescence)” value (CXCR4 [4]) of the same compound?
Answer: 33.65 % of control

Question: And the “concentration at which CXCL12-dependent migration was inhibited” value [5]?
Answer: ≤ 10 nM

Question: What about the “CXCL12-mediated p-ERK induction” value (P-ERK1/2) of the same compound?
Answer: not

Question: What about the “association of the 12G5-CXCR4 antibody to the receptor” value (CXCR4 [6]) of the same compound?
Answer: 22 % of control
